# Assay results reported in patent US10561638B2, “Methods for treating dependence” (Biotie Therapies, Inc., priority 2007, dated 2020).
# Entries after “also recorded” stand apart in the source; their conditions may differ.
# How the values were obtained:
# [1] = tested on: short-term or working memory in rats; assay: Delayed-matching-to-position (DMTP) test; format: in vivo, Sprague Dawley rats
# Method: In the present DMTP study, rats were trained to remember the position of a lever across a scheduled delay of either 0, 8, 16 or 32 s in order to earn food reward. […] Another group of rats received only vehicle treatment throughout the experiment. […] The dependent measures in the present study included percentage of correct choices, the latency to make choice responses and the number of trials which the animals were able to complete during the 70 min test sessions. Changes in the former measure may indicate changes in memory and/or attentional function whereas changes in the latter two measures may be indicative of other non-cognitive effects of the drugs. Matching to position training began next. This and all subsequent training was conducted with the partitions fitted into the operant boxes. The sessions were initially 50 minutes long. Rats were placed in the operant box and the session began when the houselight was illuminated. Following a 30 s intertrial interval (ITI), one of the two levers (the sample lever) was inserted into the chamber. The lever remained inserted into the chamber until a lever-press response occurred. […] As soon as the magazine flap was pressed the magazine light was extinguished and both levers were inserted. […] The magazine light remained on until the flap was pressed. […] A 30 s ITI was initiated before the commencement of a new trial. The lever inserted as the sample lever was semi-randomly determined such that the right and lefthand levers were presented as the sample lever 8 times in a block of 16 trials. Following 24 sessions, the animals were performing the matching to position task with a high degree of accuracy. On Session 25 a variable delay interval was interposed between the depression of the sample lever and presentation of the levers on the choice trial. After a response to the sample lever, the choice levers were inserted following the first flap press occurring after either a 0 s (immediate), 4, 8 or 16 s delay. The order of the four types of trials (0, 4, 8 or 16 s delay) was semi-randomly determined with the constraint that in a 16 trial block, each delay occurred 4 times; twice on a left trial and twice on a right trial. […] The same trial was reinstated following the end of the ITI. From Session 25 onward the time-out period following incorrect choices was omitted and the session length was increased to 70 minutes. […] Due to poor performance at the 64 s delay, however, this delay was not used in any further sessions. On Session 59, delays of 0, 8, 16 and 32 s were used. These delays were used in all subsequent sessions. Only 51 of the 56 rats completed more than 24 trials (correction plus non-correction) during Session 59. These rats were selected and semi-randomly assigned to the following 7 groups such that the groups were matched on performance (percent correct, response latency and number of trials completed): […] Thus, the drug treatments administered to the seven groups during the 11 consecutive days of the present experiment were: The data collected and analyzed in the present DMTP study include 1) the percentage of correct responses; 2) the latency between performance of a response to the sample lever and the performance of the choice response and 3) the total number of correction and non-correction trials completed. The former two dependent measures were collected for the non-correction trials only. […] Two-way analysis of variance (ANOVA) with drug treatment as the between-subjects factor and delay (0, 8, 16 or 32 s) as the within-subjects factor was used to analyze percentage of correct choices and response latency. These analyses were conducted separately for each block of data. Significant interactions were followed by a one-way ANOVA which was conducted at each delay. A significant main effect from a one-way ANOVA was followed by a two-tailed Dunnett's t-test. One-way ANOVA followed by a post hoc Dunnett's test, when appropriate, was used to analyze the mean number of trials completed. […]
# rats = assay: Chronic (10 day) dosing behavioral tests in rats
# Method: The effects of chronic dosing of nepicastat in rats were examined. Between three and thirteen days prior to the first dosing day the rats were placed inside the startle apparatus and after a five minute acclimation period they were presented with a 118 dB noise burst on average once a minute (a variable inter-trial interval ranging between 30 and 90 seconds will be used) for 20 minutes. The startle responses were measured and a mean for the last twenty startle response was calculated for each rat.
# The following behavioral tests were administered during and after chronic dosing; body core temperature, motor activity, acoustic startle reactivity, and pre-pulse inhibition of acoustic startle.
# The animals were tested in an enclosed room with a white noise generator running Motor activity tests were conducted immediately after the body core temperature reading taken on dosing day ten (about 3 hours and 35 minutes after the morning daily dose of nepicastat, and SKF-102698, and 20 minutes prior to the daily administration of clonidine and d-amphetamine on dosing day ten). Motor activity tests were run for one hour. A diagnostic program was run on each of the motor activity chambers prior to each test session to assure that the photo beams and light sensors were operating properly. […] D-amphetamine was used as the positive control for this assay.
# Rat body core temperatures were obtained by inserting the rectal probe 2 cm into the colon of each rat. Each rat's body core temperature was measured three times and the average of the three reading was calculated. Body core temperature readings were obtained immediately prior to the ten day chronic dosing schedule (to obtain a baseline), and three and half hour after the morning daily dose of nepicastat, and SKF-102698, and 15 minutes prior to the daily administration of clonidine and d-amphetamine, on dosing days one, five and ten. […] Both clonidine (an alpha2 agonist), and d-amphetamine (a dopamine releaser) were used as the positive controls for this assay.
# Acoustic startle reactivity (a series of muscle contractions elicited by an intense burst of noise with a rapid onset), and pre-pulse inhibition (sensorimotor gating measured by analyzing any decrease in startle reactivity which occurs when a startling stimulus is immediately preceded by a non startling stimulus) were both measured in eight SR-Lab (San Diego Instruments, San Diego, Calif.) test stations. The rats were placed individually in a Plexiglas cylinder (10 cm diameter) which was housed in a ventilated sound-attenuating enclosure. Acoustic noise bursts (a broad band noise with a rise time and fall time of 1 msec) were presented via a speaker mounted 30 cm above the animal. Also, these speakers produced a 68 dB level of background noise throughout all test sessions. A piezoelectric accelerometer attached below the plexiglass cylinder transduced the subject's movement into a voltage which was then rectified and digitized (on a scale from 0 to 4095) by a PC computer equipped with SR-Lab software and interface assembly. A decibel meter was used to calibrate the speakers in each of the eight test station to ±1% of the mean. Additionally, a SR-Lab calibrating instrument was used to calibrate each of the eight startle detection apparatuses to ±2% of the mean. Startle reactivity and pre-pulse inhibition tests were run concurrently immediately alter the motor activity test (about 4 hours and 40 minutes after the morning daily injection of nepicastat, and SKF-102698, and 10 minutes after a supplemental administration of clonidine and d-amphetamine on dosing day ten).
# [2] = tested on: tissue noradrenaline and dopamine content; assay: Tissue catecholamines in SHRs after three oral doses 12 h apart; format: in vivo, spontaneously hypertensive rats; conditions: for increase in DA/NE ratio: 30 mg/kg; for dopamine vs vehicle / dopamine/norepinephrine ratio vs vehicle / norepinephrine vs vehicle: 30 mg/kg x3
# Method: Male SHRs (15-16 weeks old, Charles River, Wilmington, Mass., USA) were used in in vivo studies. On the day of the study, animals were weighed and randomly assigned to be dosed with either vehicle (control) or the appropriate dose of nepicastat (3, 10, 30 or 100 mg·kg^−1, po) or Compound B (30 mg·kg^−1, po) three consecutive times, twelve hours apart. At six hours after the third dose, the rats were anaesthetized with halothane, decapitated and tissues (cerebral cortex, mesenteric artery and left ventricle) were rapidly harvested, weighed, placed in iced perchloric acid (0.4 M), frozen in liquid nitrogen and stored at −70° C. until subsequent analysis. To quantify noradrenaline and dopamine concentrations, tissues were homogenized by brief sonication and centrifuged at 13,000 rpm for 30 minutes at 4° C. The supernatant, spiked with 3,4-dihydroxybenzylamine (internal standard), was assayed for noradrenaline and dopamine by HPLC using electrochemical detection.
# Nepicastat was used in in vivo biochemical studies to study the effects in spontaneously hypertensive rats (SHRs) and normal beagle dogs. On the day of the study, the animals were weighed and randomly assigned to receive either placebo (vehicle) or the appropriate dose of nepicastat. Each rat was dosed orally three times, 12 h apart, beginning in the morning. At 6 h after the third dose, the rats were anesthetized with halothane, decapitated, and the tissues (cerebral cortex, mesenteric artery and left ventricle) were rapidly harvested, weighed, placed in iced 0.4 M perchloric acid, frozen in liquid nitrogen and stored at −70° C. until analysis. Tissue NE and DA concentrations were assayed by HPLC using electrochemical detection. Male beagle dogs (10-16 kg, Marshall Farms USA Inc, North Rose, N.Y.) were used in the study. On the day of the study, dogs were randomly assigned to receive either placebo (empty capsule) or the appropriate dose of nepicastat. Each dog was dosed twice a day for 4.5 days. 6 h after the first dose on day 5, the dogs were euthanized with pentobarbital and the tissues (cerebral cortex. renal artery, left ventricle) harvested, weighed, placed in iced 0.4 M perchloric acid, frozen in liquid nitrogen and stored at −70° C. until analysis. Tissue NE and DA concentrations were assayed by HPLC using electrochemical detection.
# Fifteen to sixteen week old male spontaneously hypertensive rats (SHRs) (Charles River Labs) were allowed food and water ad libitum. Animals were weighed and randomly assigned to one of the following treatment groups: 1) distilled water vehicle (dH2O), or nepicastat at 3, 10, 30, and 100 mg/kg, 2) Compound B at 30 mg/kg in distilled water, or 3) PEG 400:dH2O vehicle or SKF-102698 at 30 mg/kg. Each rat was dosed orally (p.o., using a gavage needle) three times 12 hours apart, beginning in the morning. At six hours after the third dose rats were anesthetized with halothane, decapitated, and the cortex, mesenteric artery, and left ventricle were rapidly harvested, weighed, placed in iced 0.4 M perchioric acid, frozen in liquid nitrogen, and stored at −70° C. Tissue dopamine and norepinephrine concentrations were assayed by high performance liquid chromatography and electrochemical detection.
# Four series of statistical analyses were performed. The first series compared the rats treated with various doses of nepicastat, and Compound B at 30 mg/kg to the vehicle control animals. A nonparametric one-way analysis of variance (ANOVA) with factor Dose and blocking factor Day was performed for each tissue and strain separately. […] Pairwise analysis between treated and controls at each dose were carried out using Dunnett's test to control the experiment-wise error rate. The second statistical test compared SKF-102698 to the PEG-dH2O vehicle treated group using a nonparametric t-test. The third statistical test compared Compound B to nepicastat at doses of 30 mg/kg using a nonparametric t-test.
# SHRs = assay: 30-day radio-telemetry study in SHRs
smiles,measurement,setting,value
"CN1[C@@H]2C[C@@H](OC(=O)[C@H](CO)c3ccccc3)C[C@H]1[C@@H]1O[C@@H]12 [scopolamine, Scopolamine HBr, reference compound]",number of trials completed,[1]; all scopolamine treated groups,significantly reduced
same,percentage of correct choices vs Vehicle/Vehicle,[1]; scopolamine HBr 0.1 mg/kg s.c.,significantly impaired percentage of correct choices
C[C@H](N)Cc1ccccc1 [d-amphetamine],change in body weight from pre-dose,rats; 10 days,significantly smaller change in body weight
same,pre-pulse inhibition,rats; dosing day ten,Neither d-amphetamine nor SKF-102698 was significantly different
same,locomotor activity vs vehicle,"rats; dosing day ten, nepicastat 5, 15, 50, SKF-102698 50 mg/kg bid, clonidine 20 μg/kg, d-amphetamine 2 mg/kg bid",significantly higher locomotor activity
same,body core temperature,"rats; dosing days one, five, ten",significantly increasing body core temperature on day one
"NCc1c[nH]c(=S)n1[C@@H]1CCc2c(F)cc(F)cc2C1 [Compound B, (R)-5-Aminomethyl-1-(5,7-difluoro-1,2,3,4-tetrahydronaphth-2-yl)-2,3-dihydro-2-thioxo-1H-imidazole]",increase in DA/NE ratio,[2]; cerebral cortex,1.1 fold
same,dopamine vs vehicle,[2]; cerebral cortex,significant increase
same,dopamine/norepinephrine ratio vs vehicle,[2]; cerebral cortex,no effect
same,norepinephrine vs vehicle,[2]; cerebral cortex,significant increase
same,increase in DA/NE ratio,[2]; left ventricle,3.5 fold
same,dopamine vs vehicle,[2]; left ventricle,significant increase
same,dopamine/norepinephrine ratio vs vehicle,[2]; left ventricle,significant increase
same,norepinephrine vs vehicle,[2]; left ventricle,did not significantly lower
same,increase in DA/NE ratio,[2]; mesenteric artery,2.6 fold
same,dopamine vs vehicle,[2]; mesenteric artery,significant increase
same,dopamine/norepinephrine ratio vs vehicle,[2]; mesenteric artery,significant increase
same,norepinephrine vs vehicle,[2]; mesenteric artery,did not significantly lower
"CCOC(=O)[C@H](CCc1ccccc1)N[C@@H](C)C(=O)N1CCC[C@H]1C(=O)O [enalapril, reference compound]",body weights,SHRs; enalapril 1 mg/kg,slightly decreased body weight
same,heart rate,SHRs; enalapril 1 mg/kg,did not affect HR
same,left ventricular mass,SHRs; enalapril 1 mg/kg,did not regress the hypertrophy
same,antihypertensive effect of mono-administration,SHRs; enalapril 1 mg/kg or nepicastat 30 mg/kg (Series III),failed to lower blood pressure; also recorded: only a small antihypertensive effect; also recorded: did not induce significant antihypertensive effects
same,antihypertensive effect throughout the study,SHRs; enalapril 10 mg/kg,−20 to −30 mmHg
same,body weights,SHRs; enalapril 10 mg/kg,significantly decreased (p<0.05) or had no effect
same,heart rate,SHRs; enalapril 10 mg/kg,transient small tachycardia
same,left ventricular mass,SHRs; enalapril 10 mg/kg,"significantly reduced left ventricular mass in Series II, but not in Series I"
same,maximal decrease in MBP,"SHRs; enalapril 10 mg/kg, within 1 hr after dosing on day 5",−29 mmHg
